Laboratory results as given in PMC4008261, “Rewiring of regenerated axons by combining treadmill training with semaphorin3A inhibition” (Molecular Brain, 2014).

Assays:
SCT adult rats [1] = test: Kinematic analysis of hindlimb motor performance on a treadmill; format: in vivo, rat
Protocol: (§1) Rats were randomly divided into the following three experimental groups: 1) untrained + placebo, 2) untrained + SM-345431 and 3) trained + SM-345431. SCT was performed, and SM-345431 or placebo was administered at the lesion site via the newly developed DDS, which is described in detail below. Starting 1 week post-injury, treadmill training commenced with a BSS. Kinematic tests were performed monthly for 3 months after SCT using a rodent robotic device (Rodent robot 3000, Robomedica Inc.) that primarily assessed the performance of plantar stepping on a treadmill. Treadmill training was continued throughout the experimental period.
A robotic device (rodent robot 3000, Robomedica Inc.) was used to train the SCT rats. Briefly, the device consisted of a computer-controlled BSS, two lightweight robotic arms and a treadmill with variable motorized speeds. The ankles of the hindlimbs of rats were held with a pair of releasable rope cuffs, which were then secured to robotic arms to track ankle trajectory in the horizontal and vertical directions. A computer-controlled body support arm was used to control the load that was applied to the hindlimbs and to maintain body equilibrium. Rats were secured in a cloth vest and attached to the body support arm with a hook-and-loop fabric. Hard rope cuffs were attached to the hindlimbs of rats with the robotic arm during training.
Additionally, improvements in motor performance were more obvious when the treadmill training was initiated at earlier time points after SCT. Therefore, training was initiated as early as 1 week after SCT. The fixed parameters were set at 50% body weight support (BWS), 20 min/day and 5 days/week. The animals were adapted to the training via increasing velocity; a velocity of 1 cm/s was used in the first week, and then the velocity was increased by 2 cm/s every 2 weeks for the first 2 months after injury (i.e., 1 cm/s to 3 cm/s to 5 cm/s). […] Once the rats dragged their hindlimbs and stopped walking on the treadmill, a trainer brought their bodies back to the original walking position. The step ability of SCT rats on the treadmill improved gradually over the course of the first 2 months following injury. However, this improvement was attenuated at time points later than 2 months after injury.
To evaluate the locomotor capability of SCT rats in detail, the aforementioned robotic device was employed. Each robotic arm tracked the two-dimensional movement of the ankle, and the trajectory of the ankle movement was then recorded on a computer for kinematic analyses. Not all the rats were able to walk by themselves on the treadmill by the last time point of the experiment. Therefore, when performing the tests, the degree of BWS and treadmill speed were titrated to obtain the maximum walking performance on the treadmill. As a result of this titration, the behavioral tests were performed at 70% BWS and a treadmill velocity of 1 cm/s each month after SCT. The duration of testing was 1 min per rat to minimize training effects during testing. The methods of previous reports were followed with slight adaptations. Briefly, the ankle trajectory in each plane was recorded by the robotic arm and a computer. Then, the toe off (TO) and paw contact (PC) events in each step cycle were identified using Rodent Robot 3000 software. All kinematic characteristics were obtained when TO and PC were identified; as a result, parameters such as the duration phase, the swing phase of the step cycle and the length and height of the step were calculated. The number of animals used in these behavioral tests was 32 (control: n = 9, SM-345431: n = 12, combined: n = 11).

SCT adult rats [2] = test: Lumbar spinal circuitry after SCT (c-Fos and synapsin-1 immunostaining); format: in vivo, rat
Protocol: as §1
(§2) A total of 53 adult female Sprague-Dawley rats (200-250 g, 10-12 weeks old) were used in this study (3 rats died during the experimental period and were excluded from the statistical analysis). All procedures were approved by the experimental animal care committee of Keio University, School of Medicine and Murayama Medical Center (approval #12-8). All rats were anesthetized with an intraperitoneal injection of ketamine (100 mg/kg)/xylazine (10 mg/kg). The spinal cord at the level of the T10 lamina was exposed by T10 laminectomy, and the dorsal dura mater was opened. The exposed spinal cord was cut along the inner edge of the vertebra with a sharp micro-scissor. Two more cuts were made at the gap of the transected spinal cord by a scalpel to ensure total transection. SM-345431 or placebo was administered to the transected site via the newly developed DDS as described in detail below (Figure 1G-I). After these procedures, the back muscles and skin were closed. Rats were kept warm in an incubator (37°C) after surgery. To prevent dehydration in the rats, 10 ml of saline was subcutaneously injected daily until day 7. Ampicillin (0.4 g/kg) was also injected intramuscularly daily to prevent infection until day 7. The bladder was evacuated manually until autonomous emptying of the bladder was achieved. The re-transection procedure was performed at the same level as the primary SCT (15 rats total; 5 rats from each group). Kinematic data were recorded using similar procedures prior to re-transection surgery (on the same day) and on the day following re-transection surgery. For CST tracing, 10% BDA was injected as follows. Nine weeks after SM-345431 or placebo administration, BDA (10000 MW, Molecular Probes) was injected into six different sites of the sensorimotor cortices of the rats under general anesthesia (site 1: 2.0 mm lateral, 0 mm to bregma; site 2: 2.0 mm lateral, 2 mm posterior to bregma; site 3: 2.0 mm lateral, 4 mm posterior to bregma; site 4: 4 mm lateral, 0 mm to bregma; site 5: 4 mm lateral, 2 mm posterior to bregma and site 6: 4 mm lateral, 4 mm posterior to bregma). […]

Mediator release, IL-5 = test: Pharmacological profile: mediator release; format: cell-based
From the text: (§3) Table 1 Pharmacological profile of SM-345431 (part 1) | column: IC50 (μm)

Mediator release, IL-2 = test: Pharmacological profile: mediator release; format: cell-based
From the text: as §3

SCT adult rats [3] = test: Angiogenesis after SCT (RECA-1 immunostaining); format: in vivo, rat; conditions: for total immunostained area of vessels with lumen diameters larger than 20 μm versus control: 3 mm and 1 mm rostral/caudal to the lesion epicenter
Protocol: as §1
as §2, with “The re-transection procedure was performed at the same level as the primary SCT (15 rats total; 5 rats from each group).” left out, “surgery.” for “surgery. For CST tracing, 10% BDA was injected as follows. Nine weeks after SM-345431 or placebo administration, BDA (10000 MW, Molecular Probes) was injected into six different sites of the sensorimotor cortices of the rats under general anesthesia (site 1: 2.0 mm lateral, 0 mm to bregma; site 2: 2.0 mm lateral, 2 mm posterior to bregma; site 3: 2.0 mm lateral, 4 mm posterior to bregma; site 4: 4 mm lateral, 0 mm to bregma; site 5: 4 mm lateral, 2 mm posterior to bregma and site 6: 4 mm lateral, 4 mm posterior to bregma).”

[4] = SM-345431 alone, 70% BWS, 1 cm/s

## CC(=O)c1cc2c(=O)c3c(C(=O)O)c(O)c(O)cc3oc2c(C(C)=O)c1-c1coc2cc(O)c(O)c(C(=O)O)c2c1=O [SM-345431, Vinaxanthone]
SCT adult rats [1]; SM-345431 alone, without extensive treadmill training
  plantar step walking on a treadmill with the BSS: did not result in plantar step walking
SCT adult rats [1]; [4]
  effect on the step height parameter: moderate and statistically insignificant
  locomotor function on a treadmill, step length parameters (average and maximum): improved locomotor function
SCT adult rats [1]; SM-345431 alone, P < 0.05 at 3 months
  step cycle area versus control SCT rats: statistically significant enhancement
SCT adult rats [1]; SM-345431 combined with extensive treadmill training
  effect on the step height parameter (average and maximum): greater enhancement was observed
SCT adult rats [1]; SM-345431 combined with extensive treadmill training, all rats
  duration of continuous plantar step walking on a treadmill with the BSS: at least 30 min
SCT adult rats [1]; SM-345431 combined with treadmill training, P < 0.05 first month, P < 0.01 second and third month
  step cycle area versus control SCT rats: even greater improvement
SCT adult rats [2]; SM-345431 alone, L1-L5 levels, not statistically significant
  number of c-Fos + nuclei versus control SCI rats: tended to be lower
SCT adult rats [2]; SM-345431 alone, P > 0.05
  synapsin-1 expression at the lumbar enlargement versus control SCT group: No statistically significant difference
SCT adult rats [2]; SM-345431 combined with treadmill training, L4 and L5 levels, P < 0.01
  number of c-Fos + nuclei versus control SCT rats: statistically significant decrease
SCT adult rats [2]; SM-345431 combined with treadmill training, P < 0.01 vs control SCT, P < 0.05 vs SM-345431 group
  synapsin-1 expression at the lumbar enlargement: statistically significant increase
Mediator release, IL-5
  IC50: > 10 µM
Mediator release, IL-2
  IC50: > 10 µM
SCT adult rats [3]; SM-345431 alone
  total immunostained area of vessels with lumen diameters larger than 20 μm versus control: significantly increased
SCT adult rats [3]; SM-345431 combined with treadmill training
  total immunostained area of vessels with lumen diameters larger than 20 μm versus control: significantly increased
SCT adult rats [3]; SM-345431 combined with treadmill training, 3 mm caudal to the lesion epicenter, P < 0.05
  RECA-1-positive areas: significantly increased
